In PubChem BioAssay AID248 (DTP/NCI, 2004):
Values joined by “and” are separate entries in the source; they are usually repeats but may differ in a detail not shown here. Identical values can stand only once. Inconclusive results and toxic doses are left out. Cut-off read from the data, not from the text of the source: active = T/C of 150% or more; inactive = T/C below 125%.

System: L1210 leukemia ip in BDF1 mice, survival T/C
Experiment: NCI In Vivo Anticancer Drug Screen. Data for tumor model L1210 Leukemia (intraperitoneal) in B6D2F1 (BDF1) mice
Conditions: endpoint: mean survival time, higher = longer survival
Summary of the method: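 In this screen, tumor-bearing mice given compound are compared to those given vehicle, and their survival values are reported as a treated-to-control quotient.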

[1] = dose: 100.0 mg/kg/injection, schedule: Q01DX009 (ip), vehicle: Klucel (hydroxypropylcellulose) (HPC)
[2] = dose: 200.0 mg/kg/injection, schedule: Q01DX009 (ip), vehicle: Klucel (hydroxypropylcellulose) (HPC)
[3] = dose: 400.0 mg/kg/injection, schedule: Q01DX009 (ip), vehicle: Klucel (hydroxypropylcellulose) (HPC)
[4] = dose: 100.0 mg/kg/injection, schedule: Q04DX002 (ip), vehicle: Klucel (hydroxypropylcellulose) (HPC)
[5] = dose: 200.0 mg/kg/injection, schedule: Q04DX002 (ip), vehicle: Klucel (hydroxypropylcellulose) (HPC)
[6] = dose: 25.0 mg/kg/injection, schedule: Q04DX003 (ip), vehicle: saline with Tween-80
[7] = dose: 50.0 mg/kg/injection, schedule: Q04DX003 (ip), vehicle: saline with Tween-80
[8] = dose: 100.0 mg/kg/injection, schedule: Q04DX003 (ip), vehicle: saline with Tween-80
[9] = dose: 200.0 mg/kg/injection, schedule: Q04DX003 (ip), vehicle: saline with Tween-80

Measured: T/C

c1ccc(C2=C(c3ccccc3)N=c3ccccc3=c3ccccc3=N2)cc1
inactive: [1] 98 % of control | dose: 100.0 mg/kg/injection, schedule: Q04DX003 (ip), vehicle: Klucel (hydroxypropylcellulose) (HPC) 94 % of control | [2] 94 % of control | dose: 200.0 mg/kg/injection, schedule: Q04DX003 (ip), vehicle: Klucel (hydroxypropylcellulose) (HPC) 94 % of control | [3] 94 % of control | dose: 400.0 mg/kg/injection, schedule: Q04DX003 (ip), vehicle: Klucel (hydroxypropylcellulose) (HPC) 102 % of control

CC1=C/C(O)CC(=O)Cc2nc(co2)C(=O)N2CCC=C2C(=O)OC(C(C)C)C(C)/C=C\C(=O)NC/C=C\1 (configuration not stated)
inactive: dose: 0.5 micrograms/kg/injection, schedule: Q01DX009 (ip), vehicle: saline 95 % of control | dose: 1.0 micrograms/kg/injection, schedule: Q01DX009 (ip), vehicle: saline 93 % of control | dose: 2.0 micrograms/kg/injection, schedule: Q01DX009 (ip), vehicle: saline 104 % of control | dose: 4.0 micrograms/kg/injection, schedule: Q01DX009 (ip), vehicle: saline 104 % of control

CN(Cc1ccccc1)C(=O)C(c1ccccc1)c1ccccc1
inactive: [4] 89 % of control | [5] 86 % of control | dose: 400.0 mg/kg/injection, schedule: Q04DX002 (ip), vehicle: Klucel (hydroxypropylcellulose) (HPC) 96 % of control

C/C=C/C[P+](CC)(c1ccccc1)c1ccccc1
inactive: dose: 3.13 mg/kg/injection, schedule: Q01DX009 (ip), vehicle: saline 89 % of control

Cn1c(=O)c2[n-]cnc2n(C)c1=O.Cn1c(=O)c2[n-]cnc2n(C)c1=O.[Pt+2]
inactive: [6] 102 % of control | [7] 98 % of control | [8] 98 % of control

CCCCCCCCCCCCCCC1=NCCN1
inactive: dose: 5.0 mg/kg/injection, schedule: Q01DX009 (ip), vehicle: saline 98 % of control | dose: 10.0 mg/kg/injection, schedule: Q01DX001 (ip), vehicle: saline 94 % of control | dose: 10.0 mg/kg/injection, schedule: Q01DX009 (ip), vehicle: saline 104 % of control | dose: 10.0 mg/kg/injection, schedule: Q04DX003 (ip), vehicle: saline 92 % of control | dose: 20.0 mg/kg/injection, schedule: Q01DX001 (ip), vehicle: saline 103 % of control | dose: 20.0 mg/kg/injection, schedule: Q01DX009 (ip), vehicle: saline 106 % of control | dose: 20.0 mg/kg/injection, schedule: Q04DX003 (ip), vehicle: saline 101 % of control | dose: 40.0 mg/kg/injection, schedule: Q01DX001 (ip), vehicle: saline 98 % of control | dose: 40.0 mg/kg/injection, schedule: Q04DX003 (ip), vehicle: saline 92 % of control

CCCCCCCCCCCCSCCCCSCCCCCCCCCCCC
inactive: dose: 100.0 mg/kg/injection, schedule: Q01DX001 (ip), vehicle: Klucel (hydroxypropylcellulose) (HPC) 93 % of control | dose: 200.0 mg/kg/injection, schedule: Q01DX001 (ip), vehicle: Klucel (hydroxypropylcellulose) (HPC) 89 % of control | dose: 400.0 mg/kg/injection, schedule: Q01DX001 (ip), vehicle: Klucel (hydroxypropylcellulose) (HPC) 91 % of control

Cn1nccc2c(=O)n(C)c(=O)nc1-2
inactive: [4] 97 % of control | [5] 95 % of control

COC(=O)C(NC(=O)OCc1ccccc1)C(=O)OC
inactive: [8] 100 % of control | [9] 100 % of control | dose: 400.0 mg/kg/injection, schedule: Q04DX003 (ip), vehicle: saline with Tween-80 98 % of control

CC(=O)OC1C(CF)OC(n2ccc(=O)[nH]c2=O)C1OC(C)=O (configuration not stated)
inactive: dose: 100.0 mg/kg/injection, schedule: Q01DX005 (ip), vehicle: saline 105 % of control | dose: 200.0 mg/kg/injection, schedule: Q01DX005 (ip), vehicle: saline 123 % of control

CCOC(=O)/C=C/Sc1ccccc1
inactive: dose: 12.5 mg/kg/injection, schedule: Q04DX002 (ip), vehicle: saline with Tween-80 98 % of control | dose: 25.0 mg/kg/injection, schedule: Q04DX002 (ip), vehicle: saline with Tween-80 98 % of control | dose: 50.0 mg/kg/injection, schedule: Q04DX002 (ip), vehicle: saline with Tween-80 91 % of control

O=C(Cl)COc1cccc2ccccc12
inactive: [1] 93 % of control | [2] 98 % of control | [3] 101 % of control

O=C(O)CCC(=O)c1cccc2ccccc12
inactive: dose: 100.0 mg/kg/injection, schedule: Q01DX009 (ip), vehicle: saline 96 % of control | dose: 100.0 mg/kg/injection, schedule: Q04DX003 (ip), vehicle: saline 105 % of control | dose: 200.0 mg/kg/injection, schedule: Q01DX009 (ip), vehicle: saline 112 % of control | dose: 200.0 mg/kg/injection, schedule: Q04DX003 (ip), vehicle: saline 94 % of control | dose: 400.0 mg/kg/injection, schedule: Q04DX003 (ip), vehicle: saline 103 % of control

CC(=O)NS(=O)(=O)CCCC[n+]1c(C)oc2ccc(-c3ccccc3)cc21
inactive: dose: 100.0 mg/kg/injection, schedule: Q04DX003 (sc), vehicle: olive oil, sesame oil, peanut oil 98 % of control | dose: 200.0 mg/kg/injection, schedule: Q04DX003 (sc), vehicle: olive oil, sesame oil, peanut oil 100 % of control | dose: 400.0 mg/kg/injection, schedule: Q04DX003 (sc), vehicle: olive oil, sesame oil, peanut oil 100 % of control

CC(NC(=O)NCCCl)c1ccccc1 (configuration not stated)
inactive: [6] 100 % of control | [7] 90 % of control | [8] 100 % of control and 90 % of control and 94 % of control | [9] 102 % of control

CC1(C)C2CCC1(C)C(OCCCN=C(N)CSS(=O)(=O)O)C2 (configuration not stated)
inactive: dose: 1.5 mg/kg/injection, schedule: Q04DX002 (ip), vehicle: Klucel (hydroxypropylcellulose) (HPC) 113 % of control | dose: 3.0 mg/kg/injection, schedule: Q04DX002 (ip), vehicle: Klucel (hydroxypropylcellulose) (HPC) 100 % of control | dose: 6.0 mg/kg/injection, schedule: Q04DX002 (ip), vehicle: Klucel (hydroxypropylcellulose) (HPC) 91 % of control
